Source: patent US20080090892A1, “AMORPHOUS ASENAPINE AND PROCESSES FOR PREPARING SAME” (N.V. Organon, priority 2006, published 2008)
Where a name gives a salt, the structure may show the parent alone.

Experiment: Relative humidity (RH) study, visual assessment in double-vial relative humidity chambers
Format: physicochemical
Conditions: approximately 36 hours
Experimental: Relative Humidity (RH): An RH study was conducted to determine appropriate handling conditions for amorphous asenapine maleate. Samples of Batch A1 were placed in double-vial relative humidity chambers at 3.4% RH, 8.2% RH and 22.5% RH and were visually assessed after approximately 36 hours.

Q: What does the source list for `CN1C[C@@H]2c3ccccc3Oc3ccc(Cl)cc3[C@H]2C1` (relative stereo) [Batch A1, trans-5-chloro-2-methyl-2,3,3a,12b-tetrahydro-1H-dibenz[2,3:6,7]oxepino[4,5-c]pyrrole maleate]?
A: physical state after storage at controlled relative humidity (visual assessment) (3.4% RH): remained solid; physical state after storage at controlled relative humidity (visual assessment) (8.2% RH): remained solid; physical state after storage at controlled relative humidity (visual assessment) (22.5% RH): deliquesced
